Results reported in patent publication US10633423B2, “IL-6-binding polypeptide complex” (AFFIBODY AB, priority 2014, dated 2020).

Key:
[1] = tested on: IL-6 trans-signaling in human umbilical vein endothelial cells (HUVECs); experiment: HUVEC trans-signaling assay, MCP-1 readout; type: cell-based; settings: Z variants fused to ABD variant PP013
Experimental: To address the trans-signaling pathway, a second assay was used. Herein, human umbilical vein endothelial cells (HUVECs) were stimulated with hIL-6 and soluble hIL-6Rα and the readout was the production of monocyte chemoattractant protein-1 (MCP-1). HUVECs (Lonza) were grown in EGM-2 bullet kit media (Lonza) and passaged in culture no more than eight times. Cells were grown until 75% confluence before use. Cells were detached using trypsin/EDTA (Lonza), resuspended and washed once in fresh medium. Next, cells were counted and dispensed into 96 well flat bottom plates at a density of 2×10^4 cells per well. Cells were cultured overnight at 37° C. in a humidified 5% CO2 atmosphere. […] The pre-mixed solutions with the test molecules and hIL-6/hIL-6Rα were then transferred to wells containing HUVECs, which were incubated for 24 h at 37° C. in a humidified 5% CO2 atmosphere. Cell free supernatant was collected after the incubation period and human MCP-1 levels were determined by sandwich ELISA using the MCP-1 Duoset ELISA development system (R&D Systems).
Half area 96-well ELISA plates were coated with anti-MCP-1 capture antibody (R&D Systems) at a concentration of 1 μg/ml. Plates were incubated overnight at 4° C., washed twice in tap water and blocked for 1 h in PBSC. […] The absorbance was measured at 450 nm using a microplate reader (Victor^3, Perkin Elmer).

[2] = biological target: T1, TNF (Homo sapiens, UniProt P01375); experiment: ELISA binding activity of matured complexes, TNF (Example 13); settings: approximate; plates coated with 0.5 μg/ml TNF
T1 construct: purchased R&D Systems
Experimental: The binding of TNF and IL-6 targeting complexes was analyzed in an ELISA assay. Half-area 96-well ELISA plates were directly coated at 4° C. overnight with 0.5 μg/ml of TNF or IL-6 in PBS buffer and the wells were blocked with 100 μl of 3% skim milk/PBS (137 mM NaCl, 2.7 mM KCl, 10 mM Na2HPO4, 1.8 mM KH2PO4) for 1 h at RT. Next, 30 μl of serially diluted complexes and control antibodies from a starting concentration of 1 μg/ml in 3% skim milk/PBS were added to each well. The plates were incubated for 2 h at RT followed by washing four times with PBST 0.05%. HRP conjugated anti-human IgG Fc secondary antibody (Pierce, cat. no. 31423) was diluted 1:5000 in 3% skim milk/PBS and added to the wells followed by 1 h incubation. After washing as described above, 30 μl ImmunoPure TMB substrate (Pierce, cat. no. 34014) was added to the wells and the plates were treated according to the manufacturer's recommendations. Adalimumab (Abbvie, LOT4435XH04) was used as a positive control for the TNF binding activity and as a negative control for the IL-6 binding activity. Furthermore, an irrelevant IgG (Jackson Immunoresearch, cat. no. Jac-009-000-003) was included as a negative control in both assays.

[3] = RA patients, monotherapy, Gabay et al 2013; cited from earlier work
[4] = tested on: IL-6/TNF-dependent proliferation of TF-1 cells; experiment: TF-1 cell assay, stimulated with both IL-6 and TNF (Example 11); type: cell-based, human; settings: TF-1 cells simultaneously stimulated with IL-6 and TNF
Experimental: TF-1 cells were cultured in RPMI1640 with L-glut (Lonza) supplemented with 10% FCS (Gibco), Pen-Strep (Lonza) and 2 ng/ml rhGM-CSF (R&D Systems). Prior to use, the cells were washed twice in RPMI1640 in the absence of rhGM-CSF. Cells were then counted and dispensed into 96 well flat bottomed plates at a density of 4×10^4 cells per well. […] The samples were incubated in the presence of either 0.099 nM rhIL-6 (R&D Systems, cat. no. 206-IL/CF), 0.023 nM rhTNF (R&D Systems, cat. no. 210-TA) or a combination of both cytokines. The pre-mixtures were transferred to wells containing TF-1 cells which were incubated for 72 h at 37° C. in a humidified 5% CO2 atmosphere. During the last four hours of incubation, 10 μl of CCK-8 (Fluka, Sigma Aldrich) was added per well to determine the number of proliferating cells. The absorbance was measured at 450 nm (Abs450) using a microplate reader (VICTOR^3, Perkin Elmer). The data on cell growth was assessed by non-linear regression to a four-parameter dose-response curve, and the half maximal inhibitory concentration (IC50) was determined using GraphPad Prism program. The inhibition of IL-6/TNF-dependent proliferation of TF-1 cells by the inhibitory molecules was as Abs450 minus control wells that contained cells but no IL-6.

T1 sequence (P01375 77-233 limits assumed): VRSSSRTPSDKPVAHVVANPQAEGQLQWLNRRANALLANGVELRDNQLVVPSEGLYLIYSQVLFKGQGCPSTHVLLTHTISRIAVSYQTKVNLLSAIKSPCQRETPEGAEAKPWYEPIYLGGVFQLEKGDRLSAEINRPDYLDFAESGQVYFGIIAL

## Z03638: control Z variant binding an irrelevant target; tested in fusion with ABD variant PP013 [reference compound]
[1]
  inhibition of IL-6 mediated trans-signaling: did not

## Adalimumab
[2]
  EC50: 0.077 nM

## tocilizumab
[3]
  reduction of RA-related symptoms: more effective than adalimumab

## His6-Z04726: negative control Z variant Z04726 (SEQ ID NO:1553) with N-terminal His6-tag [reference compound]
[4]
  blocking of TF-1 cell growth: No effect
